Measured values from patent US20090124631A1, “Combination Therapy” (priority 2007, published 2009).
One block for each compound: values may come before it.

Experiments:
Format in all cases: biochemical
HDAC5 = target: T1, HDAC5 (Homo sapiens, UniProt Q9UQL6); experiment: Fluorescence-based HDAC enzyme assay, recombinant HDAC5; settings: recombinant human HDAC enzyme in vitro; read-out: IC50 (μM) HD5
T1 construct: cDNAs encoding truncated versions of HDAC4, 5 and 7 encompassing their deacetylase domains; hexahistidine (N); made in house; host or cells: Sf-9 insect cells (baculovirus)
T1 sequence (Q9UQL6 684-1028 limits assumed): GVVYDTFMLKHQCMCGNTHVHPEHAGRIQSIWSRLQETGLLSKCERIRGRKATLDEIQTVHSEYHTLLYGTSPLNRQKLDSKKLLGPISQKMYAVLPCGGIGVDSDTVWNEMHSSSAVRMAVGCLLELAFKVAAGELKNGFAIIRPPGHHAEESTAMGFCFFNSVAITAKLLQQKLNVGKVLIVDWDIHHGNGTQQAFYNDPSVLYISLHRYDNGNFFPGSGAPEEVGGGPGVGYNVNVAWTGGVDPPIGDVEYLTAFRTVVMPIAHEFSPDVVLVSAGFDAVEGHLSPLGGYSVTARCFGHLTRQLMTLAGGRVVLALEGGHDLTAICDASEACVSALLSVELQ
From the text: (§1) cDNAs of human HDAC1-8 and 11 were generated by RT-PCR reactions using primers complementary to the 5′ and 3′ coding sequence of human HDAC gene sequences in GenBank. cDNAs corresponding to the full length human HDAC1, 2, 3 and 11 were cloned into pBlueBac4.5 vector (Invitrogen). The constructs were used to generate recombinant baculoviruses using the Bac-N-Blue™ DNA according to the manufacturer's instructions (Invitrogen). The recombinant HDAC1, 2, 3, 11 proteins produced harbor a FLAG tag at their C-termini. cDNAs encoding truncated versions of HDAC4, 5 and 7 encompassing their deacetylase domains were cloned into pDEST10 as an N-terminal hexahistidine fusion protein and recombinant baculoviruses were generated using the Bac-to-Bac™ Baculovirus expression system (Invitrogen). HDAC6 and 8 were cloned as full length N-terminally His-tagged protein. All HDAC proteins were expressed in insect Sf-9 cells (Spodoptera frugiperdai) upon infection with recombinant baculovirus. HDAC1 enzyme was purified from the Q-sepharose FF column (Amersham Pharmacia Biotech, Baie d'Urfe QC, Canada) followed by an anti-FLAG immunoaffinity column (Sigma). HDAC2, 3 and 11 were purified using Flag-antibody immunoaffinity purification. HDAC4, 5, 6, 7 and 8 were purified using either Ni-NTA resin (QIAGEN Mississauga ON, Canada) or His-Select resin (Sigma) with step washes and elution with different concentrations of imidazole in Buffer containing 25 mM Tris (or NaPO4) pH 8.0, 10% glycerol and 150 mM or 500 mM NaCl.
(§2) Recombinant HDAC enzymes were incubated with diluted compounds in assay buffer (25 mM Hepes, pH 8.0, 137 mM NaCl, 1 mM MgCl2 and 2.7 mM KCl) for 10 minutes at ambient temperatures in black 96-well plate. Boc-Lys(Ac)-AMC (for HDAC1, 2, 3, 6, and 8 enzymes), which was purchased from Bachem Biosciences Inc., (King of Prussia, Philadelphia) were added into enzyme-compound mixture and incubated at 37° C. For HDAC4, 5, 7 assays, Boc-Lys(TFA)-AMC, which was synthesized in house, was used as substrate and 0.1% BSA was added to the buffer. […] Reaction time was predetermined to ensure that reaction was linear for the incubation time. Reaction was stopped by adding a freshly prepared trypsin (1 mg/ml final concentration) with 1 μM TSA (Biomol) in assay buffer. After 30 minutes, fluorescence was measured using a fluorometer (SPECTRAMAX GeminiXS, Molecular Devices, Sunnylvale, Calif.). The 50% inhibitory concentrations (IC50) for inhibitors were determined by analyzing dose-response inhibition curves.

HDAC4 = target: T2, HDAC4 (Homo sapiens, UniProt P56524); experiment: Fluorescence-based HDAC enzyme assay, recombinant HDAC4; settings: recombinant human HDAC enzyme in vitro; read-out: IC50 (μM) HD4
T2 construct: cDNAs encoding truncated versions of HDAC4, 5 and 7 encompassing their deacetylase domains; hexahistidine (N); made in house; host or cells: Sf-9 insect cells (baculovirus)
T2 sequence (P56524 655-1084 limits assumed): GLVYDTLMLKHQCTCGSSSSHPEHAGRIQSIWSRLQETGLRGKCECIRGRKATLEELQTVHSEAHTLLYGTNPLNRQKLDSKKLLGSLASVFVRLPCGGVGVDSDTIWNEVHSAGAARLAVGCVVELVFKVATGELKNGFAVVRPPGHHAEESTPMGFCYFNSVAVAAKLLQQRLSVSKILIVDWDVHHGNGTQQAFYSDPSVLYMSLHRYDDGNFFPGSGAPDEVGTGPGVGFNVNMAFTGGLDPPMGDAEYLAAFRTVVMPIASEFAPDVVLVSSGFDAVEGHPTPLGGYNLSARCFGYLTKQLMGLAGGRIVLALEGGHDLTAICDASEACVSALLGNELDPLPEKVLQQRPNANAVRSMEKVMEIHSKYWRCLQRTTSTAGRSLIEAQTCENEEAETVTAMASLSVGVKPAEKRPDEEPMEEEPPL
From the text: as §1, §2

HDAC1 = target: T3, HDAC1 (Homo sapiens, UniProt Q13547); experiment: Fluorescence-based HDAC enzyme assay, recombinant HDAC1; settings: recombinant human HDAC enzyme in vitro; read-out: IC50 (μM) HD1
T3 construct: cDNAs corresponding to the full length human HDAC1, 2, 3 and 11 were cloned into pBlueBac4.5 vector; FLAG (C); made in house; host or cells: Sf-9 insect cells (baculovirus)
T3 sequence (Q13547 whole entry): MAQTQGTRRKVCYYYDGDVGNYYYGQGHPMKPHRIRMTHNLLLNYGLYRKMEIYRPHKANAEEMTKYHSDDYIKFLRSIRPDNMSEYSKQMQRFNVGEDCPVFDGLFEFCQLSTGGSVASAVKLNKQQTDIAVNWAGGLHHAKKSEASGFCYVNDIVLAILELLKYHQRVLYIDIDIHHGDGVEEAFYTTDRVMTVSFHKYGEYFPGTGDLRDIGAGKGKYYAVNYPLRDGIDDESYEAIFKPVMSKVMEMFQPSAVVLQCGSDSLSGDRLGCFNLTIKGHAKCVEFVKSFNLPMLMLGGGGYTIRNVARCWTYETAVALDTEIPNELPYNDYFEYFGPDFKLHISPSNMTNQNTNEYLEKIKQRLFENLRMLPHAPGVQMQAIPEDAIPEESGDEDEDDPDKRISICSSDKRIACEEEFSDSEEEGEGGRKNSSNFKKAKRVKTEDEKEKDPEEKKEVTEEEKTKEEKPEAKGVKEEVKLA
From the text: as §1, with “HDAC2, 3 and 11 were purified using Flag-antibody immunoaffinity purification.” left out
as §2, with “Boc-Lys(Ac)-AMC” for “Recombinant HDAC enzymes were incubated with diluted compounds in assay buffer (25 mM Hepes, pH 8.0, 137 mM NaCl, 1 mM MgCl2 and 2.7 mM KCl) for 10 minutes at ambient temperatures in black 96-well plate. Boc-Lys(Ac)-AMC”, “Calif.).” for “Calif.). The 50% inhibitory concentrations (IC50) for inhibitors were determined by analyzing dose-response inhibition curves.”

HDAC2 = target: T4, HDAC2 (Homo sapiens, UniProt Q92769); experiment: Fluorescence-based HDAC enzyme assay, recombinant HDAC2; settings: recombinant human HDAC enzyme in vitro; read-out: IC50 (μM) HD2
T4 construct: cDNAs corresponding to the full length human HDAC1, 2, 3 and 11 were cloned into pBlueBac4.5 vector; FLAG (C); made in house; host or cells: Sf-9 insect cells (baculovirus)
T4 sequence (Q92769 whole entry): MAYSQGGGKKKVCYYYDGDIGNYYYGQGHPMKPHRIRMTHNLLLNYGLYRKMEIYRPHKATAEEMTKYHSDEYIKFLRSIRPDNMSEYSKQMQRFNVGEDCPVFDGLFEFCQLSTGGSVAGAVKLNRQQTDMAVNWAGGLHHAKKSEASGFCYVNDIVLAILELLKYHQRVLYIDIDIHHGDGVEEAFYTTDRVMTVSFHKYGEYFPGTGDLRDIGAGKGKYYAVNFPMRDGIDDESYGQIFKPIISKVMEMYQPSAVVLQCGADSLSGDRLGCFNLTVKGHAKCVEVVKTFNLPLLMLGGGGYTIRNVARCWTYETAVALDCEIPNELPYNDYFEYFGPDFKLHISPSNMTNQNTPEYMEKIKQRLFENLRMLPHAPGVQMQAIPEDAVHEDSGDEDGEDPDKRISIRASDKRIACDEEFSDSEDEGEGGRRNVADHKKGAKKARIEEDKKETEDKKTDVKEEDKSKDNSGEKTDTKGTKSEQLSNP
From the text: as §1, with “HDAC2, 3 and 11 were purified using Flag-antibody immunoaffinity purification.” left out
as §2, with “Boc-Lys(Ac)-AMC” for “Recombinant HDAC enzymes were incubated with diluted compounds in assay buffer (25 mM Hepes, pH 8.0, 137 mM NaCl, 1 mM MgCl2 and 2.7 mM KCl) for 10 minutes at ambient temperatures in black 96-well plate. Boc-Lys(Ac)-AMC”, “Calif.).” for “Calif.). The 50% inhibitory concentrations (IC50) for inhibitors were determined by analyzing dose-response inhibition curves.”

HDAC7 = target: T5, HDAC7 (Homo sapiens, UniProt Q8WUI4); experiment: Fluorescence-based HDAC enzyme assay, recombinant HDAC7; settings: recombinant human HDAC enzyme in vitro; read-out: IC50 (μM) HD7
T5 construct: cDNAs encoding truncated versions of HDAC4, 5 and 7 encompassing their deacetylase domains; hexahistidine (N); made in house; host or cells: Sf-9 insect cells (baculovirus)
T5 sequence (Q8WUI4 512-865 limits assumed): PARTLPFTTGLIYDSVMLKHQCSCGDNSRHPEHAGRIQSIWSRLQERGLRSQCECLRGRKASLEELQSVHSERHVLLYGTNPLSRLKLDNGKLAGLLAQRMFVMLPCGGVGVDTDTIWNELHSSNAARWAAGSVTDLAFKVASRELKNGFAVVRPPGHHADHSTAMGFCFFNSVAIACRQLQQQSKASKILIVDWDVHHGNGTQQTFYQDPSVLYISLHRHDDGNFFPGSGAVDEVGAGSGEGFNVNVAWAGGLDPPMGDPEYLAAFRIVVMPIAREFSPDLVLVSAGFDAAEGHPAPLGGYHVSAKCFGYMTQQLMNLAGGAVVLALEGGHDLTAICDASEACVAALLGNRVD
From the text: as §1, §2

- IC50 (HDAC5): > 10 µM
- IC50 (HDAC4): > 10 µM
- IC50 (HDAC1): 0.06 µM
- IC50 (HDAC2): 0.1 µM
- IC50 (HDAC7): > 10 µM
SMILES: CN1CCN(c2ccc(C(=O)Nc3cc(-c4ccncc4)ccc3N)cc2)CC1 [Compound G]

- IC50 (HDAC5): > 10 µM
- IC50 (HDAC4): > 10 µM
- IC50 (HDAC1): 0.1 µM
- IC50 (HDAC2): 0.1 µM
- IC50 (HDAC7): > 10 µM
SMILES: CN1CCN(c2ccc(C(=O)Nc3cc(-c4ccccn4)ccc3N)cc2)CC1 [Compound F]

- IC50 (HDAC5): > 10 µM
- IC50 (HDAC4): > 10 µM
- IC50 (HDAC1): 0.06 µM
- IC50 (HDAC2): 0.09 µM
- IC50 (HDAC7): > 10 µM
SMILES: CC(C)N1CCN(c2ccc(C(=O)Nc3cc(-c4ccncc4)ccc3N)cc2)CC1 [Compound H]

The next lines start with the compound.

SMILES: Nc1ccc(-c2ccccc2)cc1NC(=O)c1ccc(N2CCC(N)CC2)cc1 [Compound E]
- IC50 (HDAC5): > 10 µM
- IC50 (HDAC4): > 10 µM
- IC50 (HDAC1): 0.02 µM
- IC50 (HDAC2): 0.08 µM
- IC50 (HDAC7): > 10 µM

SMILES: Nc1ccc(-c2ccccc2)cc1NC(=O)c1ccc(N2CC[C@H](N)C2)cc1 [Compound D]
- IC50 (HDAC5): > 10 µM
- IC50 (HDAC4): > 10 µM
- IC50 (HDAC1): 0.04 µM
- IC50 (HDAC2): 0.09 µM
- IC50 (HDAC7): > 10 µM

SMILES: Nc1ccccc1NC(=O)c1ccc(CNc2nccc(-c3cccnc3)n2)cc1 [Compound A]
- IC50 (HDAC5): > 10 µM
- IC50 (HDAC7): > 10 µM

SMILES: Nc1ccccc1NC(=O)c1ccc(N2CC[C@H](Nc3cccnc3)C2)cc1 [Compound B]
- IC50 (HDAC5): > 10 µM
- IC50 (HDAC4): > 10 µM
- IC50 (HDAC1): 0.2 µM
- IC50 (HDAC2): 0.5 µM
- IC50 (HDAC7): > 10 µM
